SMILES strings stand for the structures. In brackets after ≈: the same amount, converted by molar mass. Counter-ions that a name gives are not always drawn. Like-named read-outs stand apart in the source and are kept apart here.

Five molecules from US5278052A, “Process for the simultaneous production of benanomicins A and B” (Zaidan Hojin Biseibutsu Kagaku Kenkyu Kai, priority 1987, dated 1994) can be followed below.

The subject of series [1] is Saccharomyces cerevisiae F-7. Kind of series: MIC by standard serial dilution method (fungi). The note with it: F7, dexylosylbenanomicin B as hydrochloride. Format: cell-based.
In series [2] the test system is Staphylococcus aureus FDA209P. Kind of series: MIC by standard serial dilution method (bacteria).
A further series relates to Micrococcus luteus FDA16. Description: MIC by standard serial dilution method (bacteria).
The test system of another series is Escherichia coli K-12. Kind of series: MIC by standard serial dilution method (bacteria). Particulars: K12.
The test system of another series is Aspergillus niger. Kind of series: MIC by standard serial dilution method (fungi). The note with it: dexylosylbenanomicin B as hydrochloride. It counts as cell-based.
Another series has as its system Candida Yu-1200. Kind of series: MIC by standard serial dilution method (fungi). It counts as cell-based. Particulars: YU1200, dexylosylbenanomicin B as hydrochloride.
Another series has as its system Salmonella typhi T-63. Description: MIC by standard serial dilution method (bacteria). The note with it: Salmonella enterica.
In the next series the test system is Cochliobolus miyabeanus. Description: MIC by standard serial dilution method (fungi). It counts as cell-based. Particulars: Bipolaris oryzae.
For series [3], the system named is Staphylococcus aureus Smith. Description: MIC by standard serial dilution method (bacteria).
In series [4] the test system is Corynebacterium bovis 1810. Kind of series: MIC by standard serial dilution method (bacteria).
A further series deals with Pyricularia oryzae. Description: microbe, parasite or virus in culture. Format: cell-based.
The test system of series [5] is Klebsiella pneumoniae PCI602. Kind of series: MIC by standard serial dilution method (bacteria).
Series [6] deals with Candida pseudotropicalis F-2. Description: MIC by standard serial dilution method (fungi). The note with it: Kluyveromyces marxianus, F2. It counts as cell-based.
Another series deals with Candida albicans 3147. Description: MIC by standard serial dilution method (fungi). Format: cell-based. Particulars: dexylosylbenanomicin B as hydrochloride.
A further series relates to Candida krusei F-5. Description: MIC by standard serial dilution method (fungi). It counts as cell-based. The note with it: Pichia kudriavzevii, F5, dexylosylbenanomicin B as hydrochloride.
For a further series, the system named is Xanthomonas oryzae. Kind of series: microbe, parasite or virus in culture. Format: cell-based.
Another series deals with Candida tropicalis F-1. Description: MIC by standard serial dilution method (fungi). The note with it: F1, dexylosylbenanomicin B as hydrochloride. It counts as cell-based.
The test system of a further series is Pellicularia sasakii. Description: MIC by standard serial dilution method (fungi). Format: cell-based. Particulars: dexylosylbenanomicin B as hydrochloride.
The next series has as its system Proteus vulgaris OX19. Description: MIC by standard serial dilution method (bacteria).
Series [7] has as its system Shigella dysenteriae JS11910. Kind of series: MIC by standard serial dilution method (bacteria).
Series [8] has as its system Cryptococcus neoformans F-10. Description: MIC by standard serial dilution method (fungi). Format: cell-based.
For series [9], the system named is Trichophyton mentagrophytes (883). Kind of series: MIC by standard serial dilution method (fungi). Format: cell-based. The note with it: dexylosylbenanomicin B as hydrochloride.
In the next series the test system is Xanthomonas citri. Description: MIC by standard serial dilution method. Format: cell-based.
A further series can be described thus: in vivo. Particulars: mouse, iv.
The subject of the next series is Escherichia coli NIHJ. Kind of series: MIC by standard serial dilution method (bacteria).
Series [10] concerns Mycobacterium smegmatis ATCC607. Kind of series: MIC by standard serial dilution method (bacteria). The note with it: Mycolicibacterium smegmatis.
The subject of another series is Bacillus subtilis PCI219. Kind of series: MIC by standard serial dilution method (bacteria).
Series [11] concerns Trichophyton asteroides 429. Kind of series: MIC by standard serial dilution method (fungi). It counts as cell-based. The note with it: dexylosylbenanomicin B as hydrochloride.
For series [12], the system named is Pseudomonas aeruginosa A3. Kind of series: MIC by standard serial dilution method (bacteria).
The next series has as its system various kinds of fungi. Description: antifungal activity, summary of Table 2. Format: cell-based. The note with it: as revealed from Table 2. The source says:
4. Antibacterial and antifungal activities of benanomicin A, benanomicin B and dexylosylbenanomicn B (as the hydrochloride) are described below.

Series [13] is described as follows: Distinction between the basic, acidic and neutral natures of substance. It counts as physicochemical.
In a further series the test system is Candida albicans. Description: therapeutic effect on experimental Candida infection in mice. Particulars: 3 times (0, 6, 24 h).
For another series, the system named is Jcl:ICR-strain mice. The note with it: mouse, in vivo, iv, 600 mg/kg.
Setting [14] is: Candida pseudotropicalis F-2, dexylosylbenanomicin B as hydrochloride, read-out: MIC.

With `COc1cc(O)c2c(c1)C(=O)c1c(cc3c(c1O)-c1c(cc(C)c(C(=O)N[C@H](C)C(=O)O)c1O)C(O[C@@H]1O[C@H](C)[C@H](N)[C@H](O[C@@H]4OC[C@@H](O)[C@H](O)[C@H]4O)[C@H]1O)C3O)C2=O` (stereo partly shown) [Benanomicin B], the MIC in [1] was 12.5 µg/mL (≈ 15.1 µM); in series [2], over 100 µg/mL; in the series with Micrococcus luteus FDA16, 3.12 µg/mL (≈ 3.77 µM); against Escherichia coli K-12, over 100 µg/mL; in the series on Aspergillus niger, over 100 µg/mL; against Candida Yu-1200 it was 12.5 µg/mL (≈ 15.1 µM). Besides, the MIC is over 100 µg/mL in the series with Salmonella typhi T-63; over 100 µg/mL in the series with Cochliobolus miyabeanus; over 100 µg/mL in [3]; 3.12 µg/mL (≈ 3.77 µM) in [4]; 50 µg/mL (≈ 60.5 µM) against Pyricularia oryzae; over 100 µg/mL in series [5]. Also, the MIC was 6.25 µg/mL (≈ 7.56 µM) in series [6] (setting [14]); 25 µg/mL (≈ 30.2 µM) in the series with Candida albicans 3147; 6.25 µg/mL (≈ 7.56 µM) in the series with Candida krusei F-5; over 100 µg/mL against Xanthomonas oryzae; over 100 µg/mL in the series on Candida tropicalis F-1; 50 µg/mL (≈ 60.5 µM) against Pellicularia sasakii. For the same molecule, the MIC in the series with Proteus vulgaris OX19 was over 100 µg/mL; in series [7] it was over 100 µg/mL; in [8] (F10, read-out: MIC) it was 1.56 µg/mL (≈ 1.89 µM); in series [9], 25 µg/mL (≈ 30.2 µM); in the series on Xanthomonas citri, over 100 µg/mL; against Escherichia coli NIHJ, over 100 µg/mL. For the same molecule, the MIC is over 100 µg/mL in [10], over 100 µg/mL in the series on Bacillus subtilis PCI219, 25 µg/mL (≈ 30.2 µM) in series [11] and over 100 µg/mL in [12]. The same molecule displayed an MTD in the series “in vivo” of 100 mg/kg. In the series with various kinds of fungi, the “antifungal activities against various kinds of fungi” value (“antifungal activities” below) was “substantial antifungal activities”.

On to `COc1cc(O)c2c(c1)C(=O)c1c(cc3c(c1O)-c1c(cc(C)c(C(=O)N[C@H](C)C(=O)O)c1O)[C@H](O[C@@H]1O[C@H](C)[C@H](N)[C@H](O[C@@H]4OC[C@@H](O)[C@H](O)[C@H]4O)[C@H]1O)[C@H]3O)C2=O` [Benanomicin B hydrochloride], for which the “Distinction between the basic, acidic and neutral natures of substance” value (shortened to “Distinction between the basic”) in [13] is “Amphoteric substance”. Moreover, the Solubility entry in “Solubility” (acetone) is recorded as “Only sparingly soluble”; in “Solubility” (chloroform), “Only sparingly soluble”; in the series “Solubility” (dimethylformamide), “soluble”; in the series “Solubility” (dimethylsulfoxide), “soluble”; in “Solubility” (ethyl acetate) it was “Only sparingly soluble”; in the series “Solubility” (methanol), “soluble”. For the same molecule, the Solubility result in “Solubility” (water) is on record as “soluble”.

In the case of `COc1cc(O)c2c(c1)C(=O)c1c(cc3c(c1O)-c1c(cc(C)c(C(=O)N[C@H](C)C(=O)O)c1O)C(O[C@@H]1O[C@H](C)[C@H](N)[C@H](O)[C@H]1O)C3O)C2=O` (stereo partly shown) [Dexylosylbenanomicin B], the MIC came to 6.25 µg/mL (≈ 9 µM) in series [1]; 25 µg/mL (≈ 36 µM) against Aspergillus niger; 6.25 µg/mL (≈ 9 µM) with Candida Yu-1200; 50 µg/mL (≈ 72 µM) with Cochliobolus miyabeanus; 25 µg/mL (≈ 36 µM) against Pyricularia oryzae; 3.13 µg/mL (≈ 4.51 µM) in series [6]. The MIC against Candida albicans 3147 is 6.25 µg/mL (≈ 9 µM); against Candida krusei F-5, 12.5 µg/mL (≈ 18 µM); against Xanthomonas oryzae it was 100 µg/mL (≈ 144 µM); against Candida tropicalis F-1 it was 6.25 µg/mL (≈ 9 µM); with Pellicularia sasakii, 25 µg/mL (≈ 36 µM); in series [8] (F10) it was 3.13 µg/mL (≈ 4.51 µM). For the same molecule, the values for the MIC (in [9]; against Xanthomonas citri; in series [11]) were 50 µg/mL (≈ 72 µM), 100 µg/mL (≈ 144 µM) and 50 µg/mL (≈ 72 µM), respectively. Further, in “in vivo”, the MTD amounted to 100 mg/kg. Also, the “antifungal activities” value with various kinds of fungi was “substantial antifungal activities”.

In the case of `COc1cc(O)c2c(c1)C(=O)c1c(cc3c(c1O)-c1c(cc(C)c(C(=O)N[C@H](C)C(=O)O)c1O)C(O[C@@H]1O[C@H](C)[C@H](O)[C@H](O[C@@H]4OC[C@@H](O)[C@H](O)[C@H]4O)[C@H]1O)C3O)C2=O` (stereo partly shown) [Benanomicin A], the MIC in series [1] is 6.25 µg/mL (≈ 7.55 µM); in [2], 100 µg/mL (≈ 121 µM); in the series on Micrococcus luteus FDA16, 12.5 µg/mL (≈ 15.1 µM); in the series on Escherichia coli K-12 it was over 100 µg/mL; against Aspergillus niger, 50 µg/mL (≈ 60.4 µM); with Candida Yu-1200, 12.5 µg/mL (≈ 15.1 µM). In addition, the MIC against Salmonella typhi T-63 was over 100 µg/mL; in the series with Cochliobolus miyabeanus, over 100 µg/mL; in series [3], over 100 µg/mL; in [4], 12.5 µg/mL (≈ 15.1 µM); in the series with Pyricularia oryzae, 25 µg/mL (≈ 30.2 µM); in series [5] it was over 100 µg/mL. In addition, the MIC in series [6] (setting [14]) was 6.25 µg/mL (≈ 7.55 µM); against Candida albicans 3147 it was 25 µg/mL (≈ 30.2 µM); in the series on Candida krusei F-5 it was 6.25 µg/mL (≈ 7.55 µM); in the series with Xanthomonas oryzae, over 100 µg/mL; in the series on Candida tropicalis F-1, 25 µg/mL (≈ 30.2 µM); against Pellicularia sasakii, 25 µg/mL (≈ 30.2 µM). The MIC with Proteus vulgaris OX19 is over 100 µg/mL; in series [7], over 50 µg/mL; in series [8] (F10, read-out: MIC) it was 3.12 µg/mL (≈ 3.77 µM); in series [9], 50 µg/mL (≈ 60.4 µM); against Xanthomonas citri, over 100 µg/mL; in the series with Escherichia coli NIHJ, over 100 µg/mL. Also, the MIC in [10] is over 100 µg/mL; against Bacillus subtilis PCI219, over 100 µg/mL; in series [11] it was 50 µg/mL (≈ 60.4 µM); in [12], over 50 µg/mL. Also, the “Number of surviving mice” value in the series on Candida albicans (0.2 mg/mouse, subcutaneous) is recorded as 0/5; in the series with Candida albicans (0.3 mg/mouse, subcutaneous), 2/5; with Candida albicans (0.4 mg/mouse, subcutaneous), 1/5; with Candida albicans (0.8 mg/mouse, subcutaneous) it was 5/5; with Candida albicans (1.5 mg/mouse, oral), 0/5; in the series on Candida albicans (3.0 mg/mouse, oral), 0/5. Moreover, the “Number of surviving mice” value with Candida albicans (6.0 mg/mouse, oral) is on record as 3/5; with Candida albicans (12.0 mg/mouse, oral), 3/5. Besides, the “Percent of the number of surviving mice against the tested mice” value in the series on Candida albicans (0.2 mg/mouse, subcutaneous) worked out at 0%; in the series with Candida albicans (0.3 mg/mouse, subcutaneous), 40%; with Candida albicans (0.4 mg/mouse, subcutaneous) it was 20%; in the series on Candida albicans (0.8 mg/mouse, subcutaneous) it was 100%; in the series with Candida albicans (1.5 mg/mouse, oral), 0%; with Candida albicans (3.0 mg/mouse, oral) it was 0%. Also, the “Percent of the number of surviving mice against the tested mice” value was 60% in the series on Candida albicans (6.0 mg/mouse, oral) and 60% with Candida albicans (12.0 mg/mouse, oral). In “in vivo”, this molecule yielded an MTD of 600 mg/kg. Further, the mice killed result with Jcl:ICR-strain mice is “none of the mice was killed”. In addition, in series [13], the “Distinction between the basic” value is listed as “Acidic substance”. For the same molecule, the Solubility entry in the series “Solubility” (acetone) is listed as “Only sparingly soluble”; in “Solubility” (alkaline water), “soluble”; in “Solubility” (chloroform), “Only sparingly soluble”; in “Solubility” (dimethylformamide), “soluble”; in “Solubility” (dimethylsulfoxide), “soluble”; in “Solubility” (ethyl acetate), “Only sparingly soluble”. Besides, the values for the Solubility result in “Solubility” (methanol) and in the series “Solubility” (water) were “Only sparingly soluble” and “insoluble”, respectively. Moreover, the “antifungal activities” value in the series with various kinds of fungi is “substantial antifungal activities”.

In the case of `COc1cc(O)c2c(c1)C(=O)c1c(cc3c(c1O)-c1c(cc(C)c(C(=O)N[C@H](C)C(=O)O)c1O)C(O[C@@H]1O[C@H](C)[C@H](N)[C@H](O)[C@H]1O)C3O)C2=O` (stereo partly shown) [Dexylosylbenanomicin B hydrochloride], the “Distinction between the basic” value in series [13] is recorded as “Amphoteric substance”.
